The text below walks through data of patent US20020188022A1, “Methods for modulation, stimulation, and inhibition of glutamate reuptake” (Annovis. Inc., priority 2000, published 2002).

Like-named read-outs stand apart in the source and are kept apart here.

Data set [1] concerns the target T1, Glial Glutamate Transporter (GLAST and GLT1).
T1 construct: Bmax; other: 20 nM [3H]-4MG, 4° C; KD
The data set can be described thus: Binding of [3H]-4MG to rat forebrain membrane homogenates in Na+-containing HEPES buffer. To be noted: for Displacement of 4MG binding: at or above 100 μM, FIG. 5. The protocol:
(§1) Forebrain tissue from female Sprague Dawley rats was homogenized in HEPES buffer containing Na^+, and membranes were washed twice in the same buffer. Binding experiments were also performed in this buffer. Initial studies determined appropriate parameters for time (15 minutes incubation at 4° C.) and drug concentration (20 nM [^3H]-4MG) to be used in subsequent experiments. Following incubation of [^3H]-4MG with or without other compounds, binding was terminated by rapid filtration through Whatman GF/B filter discs and washing 3 times with buffer using a Brandel cell harvester. Binding was determined by scintillation spectrometry. A full range of association, dissociation, saturation and inhibition studies was performed over varying incubation times (up to 60 min). Data were analysed using computer-assisted curve fitting. Values are expressed as mean of at least triplicate determinations and multiple experiments.
(§2) A full range of association, dissociation, saturation and inhibition studies was performed over varying incubation times (up to 60 min). Data were analysed using computer-assisted curve fitting. Values cited are expressed as mean of at least triplicate determinations and multiple experiments.

A short description of data set [2]: Bioavailability and half-life of prodrug. The format is in vivo. Conditions: compared with 1. The source says: (§3) The ester, carbonate, and amine bond in any prodrug forms of compounds identified by the disclosed method can be readily cleaved in vivo. Therefore, prodrug compositions can be hydrolyzed to the corresponding acid forms in plasma.
Data set [3] in a line: Hydrolysis of prodrug to the acid form. The format is in vitro ADME.
Description: as §3

The next data set is described as follows: Analgesic effect test. The format is in vivo. To be noted: compared with 1.
Description: as §3

Data set [4] concerns Glial Glutamate Transporter (GLAST and GLT1). The data set can be described thus: Binding of [3H]-4MG to rat forebrain membrane homogenates in Na+-containing HEPES buffer. To be noted: FIG. 5. As to the method: as §1, §2
Where [5] appears, read: 20 nM [3H]-4MG, 4° C., read-out: Displacement of 4MG binding to rat brain membrane homogenates, IC50.

By IC50 is commonly meant the concentration that inhibits the measured activity by half. What is called Kd is the equilibrium constant for the complex coming apart.

Turning to “L-anti-endo-3,4-methanopyrrolidine dicarboxylate [MPDC]”, the IC50 in data set [1] (setting [5]) is 4 µM.
As for `N[C@@H](CC(=O)O)C(=O)O` [L-aspartate], the IC50 in data set [1] (setting [5]) stood at 7.5 µM.
On the same count and under the same terms, then `N[C@@H](CCC(=O)O)C(=O)O` [glutamate, L-glutamic acid], with 6.1 µM.
For the molecule `N[C@@H](COS(=O)(=O)O)C(=O)O` [SOS, L-serine-O-sulphate], the IC50 in data set [1] (setting [5]) was found to be 40 µM.
Still for that read-out and setting: then `N[C@H](C(=O)O)[C@H]1C[C@H]1C(=O)O` [CCG-III, (2S,3S,4R)-2-(carboxycyclopropyl)glycine], with 1.2 µM.
On to `COC(=O)[C@H](C)C[C@H](N)C(=O)OC` [compound 2, (2S,4R)-4-methyl glutamic acid dimethyl ester], for which, in data set [2], the Bioavailability entry is “enhanced bioavailability” and the Half-life entry was “longer half-life”. In data set [3], the “Hydrolysis to (2S,4R)-4-methyl glutamic acid (1)” value is “readily hydrolyzed”. In addition, the Analgesic effect result in “Analgesic effect test” is “analgesic effect similar to 1”.
With `Cc1onc(O)c1CC(N)C(=O)O` (stereo not drawn) [AMPA, α-amino-3-hydroxy-5-methyl-4-isoxazolepropionate], in data set [1], the “Displacement of 4MG binding” value is recorded as “failed to significantly displace”.
Consider `CC(C)(C)c1o[nH]c(=O)c1CC(N)C(=O)O` (stereo not drawn) [ATPA], for which the “Effect on 4MG and/or D-aspartate binding to GluTs” value in data set [4] is “failed to affect”.
Same read-out and setting: then `NCC(=O)O` [GLY, glycine], with “failed to affect”; and `NCCCC(=O)O` [GABA, γ-aminobutyric acid], with “failed to affect”.
Regarding `N[C@@H](Cn1cc(F)c(=O)[nH]c1=O)C(=O)O` [FW, fluorowillardiine], the “Displacement of 4MG binding” value in data set [1] is on record as “failed to significantly displace”.
As for `N[C@H](CC(=O)O)C(=O)O` [D-aspartate], in data set [1] (setting [5]), the IC50 amounted to 10.9 µM.
`C[C@H](C[C@H](N)C(=O)O)C(=O)O` [4MG, (2S,4R)-4-methylglutamate]: in data set [1], binding was characterised by a dissociation constant (Kd) of 5.4 µM. Also, the concentration for half-maximal inhibition (IC50) in data set [1] (read-out: Displacement of 4MG binding to rat brain membrane homogenates, IC50) came out at 6.7 µM.
`CN[C@H](CC(=O)O)C(=O)O` [NMDA, N-methyl-D-aspartate]: the “Displacement of 4MG binding” value in data set [1] is given as “failed to significantly displace”.
As for `C[C@H](C[C@H](N)C(=O)O)C(=O)O` [SYM 2081], the half-maximal inhibitory concentration (IC50) in data set [1] (Table 2, read-out: Inhibition of Binding of [3H]-4MG to Glial Glutamate Transporter, IC50) turned out to be 29 µM.
As for `O=C(O)[C@H]1CN[C@H](C(=O)O)C1` [PDC, L-trans-pyrrolidine-2,4-dicarboxylate], the concentration for half-maximal inhibition (IC50) in data set [1] (setting [5]) stood at 2.9 µM.
With `N[C@@H](Cn1cc(I)c(=O)[nH]c1=O)C(=O)O` [IW, iodowillardine], in data set [4], the “Effect on 4MG and/or D-aspartate binding to GluTs” value is on record as “failed to affect”.
